Reference: patent US12129258B2, “Diaryl macrocyclic compound and pharmaceutical composition, and use thereof” (PrimeGene (Beijing) Co., Ltd., priority 2018, dated 2024)
Like-named read-outs stand apart in the source and are kept apart here.

Key:
[1] = test system: Ba/F3 LMNA-NTRK1-WT; experiment: Cell proliferation inhibition (CellTiter-Glo), Ba/F3 LMNA-NTRK1-WT; format: cell-based; conditions: Mus musculus, BaF3, 72 h
From the text: (§1) 4. Inhibitory Effect of Compounds on the Proliferation of TRK Fusion and Mutant Stable Cell Lines (IC50)
(§2) Six cell lines including Ba/F3 LMNA-NTRK1-WT, Ba/F3 LMNA-NTRK1-G595R, Ba/F3 ETV6-NTRK2-WT, Ba/F3 ETV6-NTRK2-G639R, Ba/F3 ETV6-NTRK2-G639R and Ba/F3 ETV6-NTRK3-G623R were used in this experiment.
(§3) The operation is described briefly as follows:
(§4) The cells in logarithmic growth phase were harvested to ensure that the cell viability was above 90%. […] Then each well containing the cells of the 96-well plate was added the compound solutions, 3 wells for each compound solution, and continued to incubate for another 72 hrs. Then CellTiter-Glo® kit (Promega, Cat #G7572) was used to do the detection. First, the CTG reagent was melted and the cell plate was balanced to room temperature. The same volume of CTG solution was added into each well and vibrated on the shaker for 5 minutes to lyse the cells. The cell plate was kept at room temperature for 20 minutes to stabilize the luminescent signal. […] Cell survival rate (%)=(1umdrug−1ummedium)/(1umcell−lummedium)×100%

[2] = test system: Ba/F3 LMNA-NTRK3-G623R; experiment: Cell proliferation inhibition (CellTiter-Glo), Ba/F3 LMNA-NTRK3-G623R; format: cell-based; conditions: Mus musculus, BaF3, 72 h, 72 hrs, read-out: IC50 proliferation Ba/F3 LMNA-NTRK3-G623R
[3] = test system: Ba/F3 LMNA-NTRK1-G595R; experiment: Cell proliferation inhibition (CellTiter-Glo), Ba/F3 LMNA-NTRK1-G595R; format: cell-based; conditions: Mus musculus, BaF3, 72 h
From the text: as §1, §2, §3, §4

[4] = test system: Ba/F3 ETV6-NTRK2-G639R; experiment: Cell proliferation inhibition (CellTiter-Glo), Ba/F3 ETV6-NTRK2-G639R; format: cell-based; conditions: Mus musculus, BaF3, 72 h, 72 hrs, read-out: IC50 proliferation Ba/F3 ETV6-NTRK2-G639R
Procedure: as §1
Six cell lines including Ba/F3 LMNA-NTRK1-WT, Ba/F3 LMNA-NTRK1-G595R, Ba/F3 ETV6-NTRK2-WT, Ba/F3 ETV6-NTRK2-G639R, Ba/F3 ETV6-NTRK2-G639R and Ba/F3 ETV6-NTRK3-G623R were used in this experiment. For the six cell lines, the maximum test concentration of the compound was 1 μM, 1 μM, 10 μM, […], 1 μM and 10 μM, were 3.16-fold gradient diluted to obtain 9 samples.
as §3
The cells in logarithmic growth phase were harvested to ensure that the cell viability was above 90%. 3000 cell/well were seeded in 96-well plate (Corning, Cat #3603). The cells were incubated overnight with 5% CO2, 95% humidity at 37° C. Then each well containing the cells of the 96-well plate was added the compound solutions, 3 wells for each compound solution, and continued to incubate for another 72 hrs. Then CellTiter-Glo® kit (Promega, Cat #G7572) was used to do the detection. First, the CTG reagent was melted and the cell plate was balanced to room temperature. The same volume of CTG solution was added into each well and vibrated on the shaker for 5 minutes to lyse the cells. The cell plate was kept at room temperature for 20 minutes to stabilize the luminescent signal. The luminescent value was collected by SpectraMax microplate detector (MD, 2104-0010A). […] Cell survival rate (%)=(1umdrug−1ummedium)/(1umcell−lummedium)×100%

[5] = molecular target: TRKC (Homo sapiens (Human), UniProt Q16288); experiment: Mobility shift assay, TRKC kinase; conditions: read-out: TRKC IC50, ATP 44.4 μM
TRKC, sequence (Q16288 other isoform, or with tags, fused parts or gaps isoform Q16288-3): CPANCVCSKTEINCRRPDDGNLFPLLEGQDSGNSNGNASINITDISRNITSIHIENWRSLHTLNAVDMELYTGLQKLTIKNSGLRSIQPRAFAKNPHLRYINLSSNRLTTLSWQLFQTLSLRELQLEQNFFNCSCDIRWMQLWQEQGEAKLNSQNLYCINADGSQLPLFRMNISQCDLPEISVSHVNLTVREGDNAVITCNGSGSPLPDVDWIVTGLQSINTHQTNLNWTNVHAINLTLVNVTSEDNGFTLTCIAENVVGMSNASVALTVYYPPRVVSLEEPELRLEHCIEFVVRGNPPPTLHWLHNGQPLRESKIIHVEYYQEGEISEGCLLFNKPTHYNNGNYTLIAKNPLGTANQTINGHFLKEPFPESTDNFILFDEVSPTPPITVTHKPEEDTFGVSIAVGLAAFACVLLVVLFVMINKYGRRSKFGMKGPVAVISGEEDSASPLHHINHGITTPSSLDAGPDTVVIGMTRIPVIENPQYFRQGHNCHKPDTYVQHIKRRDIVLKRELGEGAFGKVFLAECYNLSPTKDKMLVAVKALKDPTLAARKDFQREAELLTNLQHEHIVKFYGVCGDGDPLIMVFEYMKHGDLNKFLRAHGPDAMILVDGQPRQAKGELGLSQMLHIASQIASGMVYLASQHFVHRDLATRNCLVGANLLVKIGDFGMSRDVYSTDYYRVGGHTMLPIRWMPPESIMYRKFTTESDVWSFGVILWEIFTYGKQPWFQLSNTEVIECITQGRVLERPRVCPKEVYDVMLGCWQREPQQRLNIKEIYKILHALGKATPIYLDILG
Procedure: The inhibitory activity of compounds on TRKA, TRKB, TRKC and ROS1 kinase was analyzed with Mobility shift assay. The screening platform is MSA based microfluidic chip technology, which applies the basic concept of capillary electrophoresis to microfluidic environment. The substrate used in the experiment is a poly-peptide labeled with fluorescent. Under the catalysis of enzyme in the reaction system, the substrate is transformed into a product, with the charge changed accordingly. MSA technology could detect the substrate and the product with different charge separately.
The operation is described as follows:
The compound powder was dissolved in 100% DMSO (Sigma, Cat. D8418-1l) to prepare a 10 mM storage solution. […] The reaction was carried out at room temperature for 30 min/40 min/20 min/20 min respectively. After the reaction was terminated, the conversion rate was read by Caliper EZ Reader II.
Conversion %_Sample: conversion rate of sample;
Conversion %_Min: mean value of negative control, representing the conversion rate without enzyme activity;
Conversion %_Max: mean value of positive control, which represents the conversion rate reading without compound inhibition.
Taking the log value of concentration as X axis and the percentage inhibition rate as Y axis, the dose response curve was fitted by the analysis software GraphPad Prism 5, thus the IC50 value of each compound on enzyme activity inhibition was obtained.

[6] = Blood-to-brain distribution in rats; format: in vivo; conditions: male, SD, rat, 10 mg/kg single oral gavage
Procedure: 7. Blood-to-Brain Distribution
Male SD rats were grouped, each group having 12 rats. Each group was given the compound of Examples (10 mg/kg) by single oral gavage. The animals were fasted overnight from 10 hours before administration to 4 hours after administration. The rats were killed at 0.5, 1, 4 and 12 hours after administration, and blood and brain tissues were collected. The samples were centrifuged at 4000 rpm at 4° C. for 5 min and plasma was transferred into the centrifuge tube and stored at −80° C. until analysis. The extract from the plasma extracted by protein precipitation was analyzed by LC/MS/MS.

IC50 ([1]; test batch marked #): 1.04 nM
IC50 ([1]; test batch marked *): 5.4 nM
IC50 ([2]; test batch marked #): 8.34 nM
IC50 ([2]; test batch marked *): 8.4 nM
IC50 ([3]; test batch marked #): 1.34 nM
IC50 ([3]; test batch marked *): 7.8 nM
IC50 ([4]; test batch marked #): 64.6 nM
IC50 ([4]; test batch marked *): 100 nM
IC50 [5]: 0.61 nM
Kp ([6]; brain/plasma, AUC0-inf ratio): 1.14
AUC(0-inf) ([6]; brain, read-out: AUC0-inf Brain): 20.8 µM·h
AUC(0-inf) ([6]; plasma, read-out: AUC0-inf Plasma): 18.2 µM·h
SMILES: C[C@H]1COC(=O)c2cnn3ccc(nc23)N[C@H](C)c2cc(F)ccc2O1 [Example 1, (1^3E,1^4E,3R,6S)-4^5-fluoro-3,6-dimethyl-5,8-dioxa-2-aza-1(5,3)-pyrazolo[1,5-a]pyrimidina-4(1,2)-benzenacyclononaphan-9-one]
